US12516056B2, “Compounds for inhibition of janus kinase 1” (MANKIND PHARMA LTD., priority 2019, dated 2026)
Like-named read-outs stand apart in the source and are kept apart here.

How the values were obtained:
Recombinant JAK1 = biological target: T1, Recombinant JAK1 (Homo sapiens, UniProt P23458); experiment: JAK biochemical assay (LANCE Ultra TR-FRET), JAK1; conditions: recombinant JAK1, TR-FRET; read-out: Biochemical Assay (μM) JAK1
T1 construct: purchased Carna Biosciences
Summary of the method: (§1)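 Kinase reactions ran in buffer of 50 mM HEPES pH 7.5 with 1 mM EGTA, 10 mM MgCl2, 2 mM DTT and 0.01% Tween-20, using recombinant enzyme. Phosphorylated ULight substrate was detected by TR-FRET, and compound effect expressed as % inhibition against vehicle.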

Recombinant JAK3 = biological target: T2, Recombinant JAK3 (Homo sapiens, UniProt P52333); experiment: JAK biochemical assay (LANCE Ultra TR-FRET), JAK3; conditions: recombinant JAK3, TR-FRET; read-out: Biochemical Assay (μM) JAK3
T2 construct: purchased Carna Biosciences
T2 sequence (P52333 1-1124): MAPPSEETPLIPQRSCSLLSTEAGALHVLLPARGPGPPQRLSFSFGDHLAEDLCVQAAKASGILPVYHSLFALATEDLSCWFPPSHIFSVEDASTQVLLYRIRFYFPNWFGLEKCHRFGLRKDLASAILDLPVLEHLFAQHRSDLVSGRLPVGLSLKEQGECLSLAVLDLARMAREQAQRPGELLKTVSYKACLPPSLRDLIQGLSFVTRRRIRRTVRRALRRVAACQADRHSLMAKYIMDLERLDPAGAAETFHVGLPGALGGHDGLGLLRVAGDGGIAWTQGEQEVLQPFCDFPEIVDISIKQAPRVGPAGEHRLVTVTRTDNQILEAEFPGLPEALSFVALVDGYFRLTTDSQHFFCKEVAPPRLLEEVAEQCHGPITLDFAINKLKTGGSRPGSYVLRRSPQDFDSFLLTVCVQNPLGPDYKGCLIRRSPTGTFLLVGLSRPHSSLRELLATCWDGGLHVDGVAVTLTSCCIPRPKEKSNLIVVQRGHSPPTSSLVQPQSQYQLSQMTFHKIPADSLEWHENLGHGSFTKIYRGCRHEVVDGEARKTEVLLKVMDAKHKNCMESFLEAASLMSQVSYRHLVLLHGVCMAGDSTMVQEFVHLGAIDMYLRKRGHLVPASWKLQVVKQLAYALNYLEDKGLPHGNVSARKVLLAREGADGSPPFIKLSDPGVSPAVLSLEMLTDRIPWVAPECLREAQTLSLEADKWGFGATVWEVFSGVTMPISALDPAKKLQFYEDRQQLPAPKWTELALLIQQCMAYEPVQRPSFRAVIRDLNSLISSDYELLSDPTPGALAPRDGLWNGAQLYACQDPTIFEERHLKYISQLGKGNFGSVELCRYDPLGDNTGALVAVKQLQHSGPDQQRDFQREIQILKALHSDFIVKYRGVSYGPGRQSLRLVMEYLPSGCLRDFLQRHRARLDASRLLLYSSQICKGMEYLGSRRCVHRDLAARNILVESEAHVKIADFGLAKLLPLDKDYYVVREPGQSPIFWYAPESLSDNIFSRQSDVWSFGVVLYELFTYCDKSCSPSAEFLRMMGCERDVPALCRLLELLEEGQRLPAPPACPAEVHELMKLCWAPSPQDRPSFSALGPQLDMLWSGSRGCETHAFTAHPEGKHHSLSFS
Summary of the method: as §1

[1] = system: STAT5 phosphorylation by GMCSF in TF-1 cells; experiment: JAK cellular assay: STAT5 phosphorylation by GMCSF in TF-1 cells (HTRF); assay type: cell-based; conditions: TF-1 cells, GMCSF 5 ng/ml, pSTAT5 HTRF, read-out: Cell Based Assay (μM) TF-1/GMCSF/pSTAT5
Summary of the method: (§2)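 Phospho-STAT3 (IL-6, 30 ng/ml) and phospho-STAT5 (GMCSF, 5 ng/ml) read by HTRF in lysates after 20 min cytokine exposure, minus unstimulated-cell background. Cells were serum-starved overnight, plated at 120,000/well, given compound 30 min at 37 °C beforehand; DMSO 0.2% final.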

[2] = system: STAT3 phosphorylation by IL-6 in TF-1 cells; experiment: JAK cellular assay: STAT3 phosphorylation by IL-6 in TF-1 cells (HTRF); assay type: cell-based; conditions: IL-6 30 ng/ml, pSTAT3 HTRF, read-out: Cell Based Assay (μM) TF-1/IL-6/pSTAT3
Summary of the method: as §2

Recombinant JAK2 = biological target: T3, Recombinant JAK2 (Homo sapiens, UniProt O60674); experiment: JAK biochemical assay (LANCE Ultra TR-FRET), JAK2; conditions: recombinant JAK2, TR-FRET; read-out: Biochemical Assay (μM) JAK2
T3 construct: purchased Carna Biosciences
T3 sequence (O60674 whole entry): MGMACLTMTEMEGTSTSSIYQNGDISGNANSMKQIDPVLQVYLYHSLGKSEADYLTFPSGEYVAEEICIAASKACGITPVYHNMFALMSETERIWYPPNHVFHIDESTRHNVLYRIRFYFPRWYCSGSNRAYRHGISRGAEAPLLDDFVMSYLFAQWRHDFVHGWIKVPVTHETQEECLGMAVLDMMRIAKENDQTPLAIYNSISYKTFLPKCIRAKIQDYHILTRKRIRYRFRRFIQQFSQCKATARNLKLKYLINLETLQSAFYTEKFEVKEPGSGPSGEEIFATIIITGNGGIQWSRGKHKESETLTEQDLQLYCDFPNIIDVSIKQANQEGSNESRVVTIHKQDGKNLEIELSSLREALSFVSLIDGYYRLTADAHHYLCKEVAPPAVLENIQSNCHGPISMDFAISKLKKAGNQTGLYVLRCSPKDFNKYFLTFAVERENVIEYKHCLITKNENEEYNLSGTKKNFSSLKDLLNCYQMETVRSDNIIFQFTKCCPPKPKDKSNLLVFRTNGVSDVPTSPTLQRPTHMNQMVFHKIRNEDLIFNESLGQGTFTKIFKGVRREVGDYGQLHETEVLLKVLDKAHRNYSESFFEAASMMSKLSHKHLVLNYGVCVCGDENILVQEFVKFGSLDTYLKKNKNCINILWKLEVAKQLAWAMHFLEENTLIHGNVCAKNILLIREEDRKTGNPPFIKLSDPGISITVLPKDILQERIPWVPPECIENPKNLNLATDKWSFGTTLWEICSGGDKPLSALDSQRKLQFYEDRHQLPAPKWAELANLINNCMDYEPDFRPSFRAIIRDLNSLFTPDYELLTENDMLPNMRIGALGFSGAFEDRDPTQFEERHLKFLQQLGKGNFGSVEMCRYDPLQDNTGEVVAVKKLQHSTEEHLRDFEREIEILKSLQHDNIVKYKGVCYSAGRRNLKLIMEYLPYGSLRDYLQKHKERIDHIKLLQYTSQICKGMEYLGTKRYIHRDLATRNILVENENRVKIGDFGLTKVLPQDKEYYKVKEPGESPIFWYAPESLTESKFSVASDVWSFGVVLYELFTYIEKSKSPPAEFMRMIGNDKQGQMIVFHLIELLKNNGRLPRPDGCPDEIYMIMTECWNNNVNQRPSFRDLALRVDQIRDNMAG
Summary of the method: as §1

Recombinant TYK2 = biological target: T4, Recombinant TYK2 (Homo sapiens, UniProt P29597); experiment: JAK biochemical assay (LANCE Ultra TR-FRET), TYK2; conditions: recombinant TYK2, TR-FRET; read-out: Biochemical Assay (μM) TYK2
T4 construct: purchased Carna Biosciences
T4 sequence (P29597 whole entry): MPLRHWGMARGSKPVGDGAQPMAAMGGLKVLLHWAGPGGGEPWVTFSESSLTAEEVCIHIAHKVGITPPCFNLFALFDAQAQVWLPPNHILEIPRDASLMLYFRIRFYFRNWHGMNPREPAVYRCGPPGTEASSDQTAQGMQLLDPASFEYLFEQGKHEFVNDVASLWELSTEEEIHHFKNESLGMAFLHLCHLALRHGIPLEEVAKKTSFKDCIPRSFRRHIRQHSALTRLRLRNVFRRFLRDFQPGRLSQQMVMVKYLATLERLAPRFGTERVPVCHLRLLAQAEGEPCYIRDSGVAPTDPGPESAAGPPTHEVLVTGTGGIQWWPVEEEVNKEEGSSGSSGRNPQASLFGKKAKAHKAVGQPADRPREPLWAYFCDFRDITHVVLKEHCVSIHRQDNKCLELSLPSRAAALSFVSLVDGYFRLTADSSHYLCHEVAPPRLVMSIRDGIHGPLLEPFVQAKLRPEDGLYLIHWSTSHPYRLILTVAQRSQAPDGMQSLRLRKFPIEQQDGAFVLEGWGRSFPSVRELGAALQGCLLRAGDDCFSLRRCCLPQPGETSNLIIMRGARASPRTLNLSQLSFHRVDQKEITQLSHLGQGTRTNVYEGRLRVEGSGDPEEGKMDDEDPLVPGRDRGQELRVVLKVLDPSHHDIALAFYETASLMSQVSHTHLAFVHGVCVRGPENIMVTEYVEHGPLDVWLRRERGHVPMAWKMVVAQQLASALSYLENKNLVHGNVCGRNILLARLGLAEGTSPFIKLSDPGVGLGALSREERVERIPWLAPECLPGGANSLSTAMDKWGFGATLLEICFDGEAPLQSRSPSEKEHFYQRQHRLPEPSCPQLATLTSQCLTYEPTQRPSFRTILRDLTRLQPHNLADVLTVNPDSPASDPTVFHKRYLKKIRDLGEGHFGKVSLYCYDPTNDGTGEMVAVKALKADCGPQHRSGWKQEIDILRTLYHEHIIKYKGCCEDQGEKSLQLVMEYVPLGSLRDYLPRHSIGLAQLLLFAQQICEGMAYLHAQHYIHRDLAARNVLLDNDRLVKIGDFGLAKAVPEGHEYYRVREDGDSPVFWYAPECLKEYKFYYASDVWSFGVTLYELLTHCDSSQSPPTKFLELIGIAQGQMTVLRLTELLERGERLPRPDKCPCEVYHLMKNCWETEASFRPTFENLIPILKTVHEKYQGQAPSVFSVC
Summary of the method: as §1

[3] = system: STAT5 phosphorylation by IL-2 in HT-2 cells; experiment: STAT5 phosphorylation by IL-2 in HT-2 cells (HTRF); assay type: cell-based; conditions: IL-2 50 U/ml, pSTAT5 HTRF, read-out: Cell Based Assay (μM) HT-2/IL-2/pSTAT5
Summary of the method: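 Readout is HTRF detection of phospho-STAT5 in lysates, corrected for signal from unstimulated cells. Before lysis, HT-2 cells starved in 10% FBS medium received compound for 30 min (0.2% DMSO final, 37 °C), followed by 50 U/ml recombinant human IL-2 for 20 min.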

T1 sequence (P23458 whole entry): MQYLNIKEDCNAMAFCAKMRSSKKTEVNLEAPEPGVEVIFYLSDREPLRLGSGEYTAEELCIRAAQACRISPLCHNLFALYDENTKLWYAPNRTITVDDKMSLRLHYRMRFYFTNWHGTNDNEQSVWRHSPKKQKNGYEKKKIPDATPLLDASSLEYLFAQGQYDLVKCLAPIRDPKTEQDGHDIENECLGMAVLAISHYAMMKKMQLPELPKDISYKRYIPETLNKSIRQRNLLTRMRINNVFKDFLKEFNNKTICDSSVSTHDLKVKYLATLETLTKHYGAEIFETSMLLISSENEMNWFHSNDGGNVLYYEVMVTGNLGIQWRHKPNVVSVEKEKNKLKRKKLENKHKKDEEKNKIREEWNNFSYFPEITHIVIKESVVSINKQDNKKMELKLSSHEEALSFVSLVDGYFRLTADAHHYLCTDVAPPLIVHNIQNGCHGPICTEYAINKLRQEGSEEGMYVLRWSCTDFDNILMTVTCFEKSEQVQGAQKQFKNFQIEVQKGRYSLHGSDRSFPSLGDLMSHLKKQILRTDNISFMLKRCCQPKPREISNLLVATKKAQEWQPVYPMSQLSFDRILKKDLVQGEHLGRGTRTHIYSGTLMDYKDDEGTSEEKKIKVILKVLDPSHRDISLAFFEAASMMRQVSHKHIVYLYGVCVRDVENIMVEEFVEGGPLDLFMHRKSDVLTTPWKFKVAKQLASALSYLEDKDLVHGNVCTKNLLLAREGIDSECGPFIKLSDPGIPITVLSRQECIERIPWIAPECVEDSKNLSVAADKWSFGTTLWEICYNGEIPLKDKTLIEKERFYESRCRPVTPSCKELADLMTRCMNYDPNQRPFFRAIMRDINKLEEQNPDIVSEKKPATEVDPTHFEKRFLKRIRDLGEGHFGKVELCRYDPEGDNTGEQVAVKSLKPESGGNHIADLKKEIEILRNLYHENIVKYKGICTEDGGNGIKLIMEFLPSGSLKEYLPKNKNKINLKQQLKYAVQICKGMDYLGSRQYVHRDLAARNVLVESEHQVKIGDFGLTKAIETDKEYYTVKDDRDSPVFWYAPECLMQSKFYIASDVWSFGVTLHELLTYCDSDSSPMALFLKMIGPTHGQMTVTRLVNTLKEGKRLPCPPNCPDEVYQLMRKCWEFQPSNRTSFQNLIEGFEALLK

Row | Structure (SMILES) | IC50 (Recombinant JAK1) [µM] | IC50 (Recombinant JAK3) [µM] | IC50 ([1]; Homo sapiens) [µM] | IC50 ([2]; Homo sapiens, TF-1, TF-1 cells) [µM] | IC50 (Recombinant JAK2) [µM] | IC50 (Recombinant TYK2) [µM] | IC50 ([3]; HT2, HT-2 cells) [µM] | IC50 ([2]; TF-1 cells) [µM] | IC50 ([3]; HT-2 cells) [µM] | IC50 [1] [µM]
1 | O=C(NCCC(c1ccc(-n2cc(-c3ccnc4[nH]cnc34)cn2)nc1)C(F)(F)F)C1CCCC1 (centres unmarked) [Example 1151, N-(3-(6-(4-(3H-imidazo[4,5-b]pyridin-7-yl)-1H-pyrazol-1-yl)pyridin-3-yl)-4,4,4-trifluorobutyl)cyclopentanecarboxamide] | < 0.1 | > 0.1 | > 1 | > 0.5 | > 0.1 | > 1 | > 1 |  |  | 
2 | FC(F)(F)C(CCNC1CC1)c1ccc(-n2cc(-c3ccnc4[nH]cnc34)cn2)nc1 (centres unmarked) [Example 1153, N-(3-(6-(4-(3H-imidazo[4,5-b]pyridin-7-yl)-1H-pyrazol-1-yl)pyridin-3-yl)-4,4,4-trifluorobutyl)cyclopropanamine] | < 0.1 | < 0.1 | > 1 | 0.36 | < 0.1 | > 0.5 | 2.1 |  |  | 
3 | OCCC(c1ccc(-n2cc(-c3ccnc4[nH]cnc34)cn2)nc1)C(F)(F)F (centres unmarked) [Example 1154, 3-(6-(4-(3H-imidazo[4,5-b]pyridin-7-yl)-1H-pyrazol-1-yl)pyridin-3-yl)-4,4,4-trifluorobutan-1-ol] | < 0.1 | < 0.1 | > 1 | > 0.5 | < 0.1 | > 0.5 | > 0.5 |  |  | 
4 | O=C(NC1CC1)NC(c1ccc(-n2cc(-c3ccnc4[nH]cnc34)cn2)nc1)C(F)(F)F (centres unmarked) [Example 1178, 1-(1-(6-(4-(3H-imidazo[4,5-b]pyridin-7-yl)-1H-Pyrazol-1-yl)pyridin-3-yl)-2,2,2-trifluoroethyl)-3-cyclopropylurea] | < 0.1 | < 0.1 | 1 | > 1 | < 0.1 | > 1 | > 1 |  |  | 
5 | O=C(NCCC(c1ccc(-n2cc(-c3ccnc4[nH]cnc34)cn2)nc1)C(F)(F)F)NC1CC1 (centres unmarked) [Example 1179, 1-(3-(6-(4-(3H-imidazo[4,5-b]pyridin-7-yl)-1H-Pyrazol-1-yl)pyridin-3-yl)-4,4,4-trifluorobutyl)-3-cyclopropylurea] | < 0.1 | < 0.1 | > 1 | > 1 | < 0.1 | > 1 | > 1 |  |  | 
6 | CC(C)S(=O)(=O)CCC(c1ccc(-n2cc(-c3ccnc4[nH]cnc34)cn2)nc1)C(F)(F)F (centres unmarked) [Example 1186, 7-(1-(5-(1,1,1-trifluoro-4-(isopropylsulfonyl)butan-2-yl)pyridin-2-yl)-1H-pyrazol-4-yl)-3H-imidazo[4,5-b]pyridine] | < 0.1 | > 0.1 | > 1 | > 0.8 | > 0.1 | > 1 | > 1 |  |  | 
7 | CNCCC(c1ccc(-n2cc(-c3ccnc4[nH]cnc34)cn2)nc1)C(F)(F)F (centres unmarked) [Example 1198, 3-(6-(4-(3H-imidazo[4,5-b]pyridin-7-yl)-1H-pyrazol-1-yl)pyridin-3-yl)-4,4,4-trifluoro-N-methylbutan-1-amine] | < 0.1 | < 0.1 | 1 |  | < 0.1 | > 0.5 |  | 0.1 | 0.6 | 

Next, values leading:

Row | IC50 (Recombinant JAK1) [µM] | IC50 (Recombinant JAK3) [µM] | IC50 ([1]; Homo sapiens) [µM] | IC50 ([2]; Homo sapiens, TF-1, TF-1 cells) [µM] | IC50 (Recombinant JAK2) [µM] | IC50 (Recombinant TYK2) [µM] | IC50 ([3]; HT2, HT-2 cells) [µM] | IC50 ([2]; TF-1 cells) [µM] | IC50 ([3]; HT-2 cells) [µM] | IC50 [1] [µM] | Structure (SMILES)
8 | 0.053 | 0.11 | > 10 | > 0.5 | 0.38 | > 1 | > 1 |  |  |  | CC(=O)N1CCC(C(O)(c2ccc(-n3cc(-c4ccnc5[nH]cnc45)cn3)nc2)C(F)(F)F)CC1 (centres unmarked) [Example 1131, 1-(4-(1-(6-(4-(3H-imidazo[4,5-b]pyridin-7-yl)-1H-pyrazol-1-yl)pyridin-3-yl)-2,2,2-trifluoro-1-hydroxyethyl)piperidin-1-yl)ethanone]
9 | < 0.1 | < 0.1 | > 1 | 0.7 | < 0.1 | > 1 | 0.8 |  |  |  | FC(F)(F)C(c1ccc(-n2cc(-c3ccnc4[nH]cnc34)cn2)nc1)C1COC1 (centres unmarked) [Example 1136, 7-(1-(5-(2,2,2-trifluoro-1-(oxetan-3-yl)ethyl)pyridin-2-yl)-1H-pyrazol-4-yl)-3H-imidazo[4,5-b]pyridine]
10 | < 0.1 | < 0.1 | < 1 | 0.47 | < 0.1 | > 1 | 0.67 |  |  |  | CS(=O)(=O)NCCC(c1ccc(-n2cc(-c3ccnc4[nH]cnc34)cn2)nc1)C(F)(F)F (centres unmarked) [Example 1143, N-(3-(6-(4-(3H-imidazo[4,5-b]pyridin-7-yl)-1H-pyrazol-1-yl)pyridin-3-yl)-4,4,4-trifluorobutyl)methanesulfonamide]
11 | < 0.1 | < 0.1 | > 1 | > 0.5 | > 0.1 | > 1 | > 1 |  |  |  | CNC(=O)CC(c1ccc(-n2cc(-c3ccnc4[nH]cnc34)cn2)nc1)C(F)(F)F (centres unmarked) [Example 1145, 3-(6-(4-(3H-imidazo[4,5-b]pyridin-7-yl)-1H-pyrazol-1-yl)pyridin-3-yl)-4,4,4-trifluoro-N-methylbutanamide]
12 | < 0.1 | < 0.1 | > 1 | > 0.5 | < 0.1 | > 1 | > 1 |  |  |  | O=C(CCC(c1ccc(-n2cc(-c3ccnc4[nH]cnc34)cn2)nc1)C(F)(F)F)NC1CC1 (centres unmarked) [Example 1150, 4-(6-(4-(3H-imidazo[4,5-b]pyridin-7-yl)-1H-pyrazol-1-yl)pyridin-3-yl)-N-cyclopropyl-5,5,5-trifluoropentanamide]
13 | 0.018 | 0.055 | > 10 | 0.3 | 0.108 | > 1 | 1.3 |  |  |  | CS(=O)(=O)CCC(c1ccc(-n2cc(-c3ccnc4[nH]cnc34)cn2)nc1)C(F)(F)F (centres unmarked) [Example 1174, 7-(1-(5-(1,1,1-trifluoro-4-(methylsulfonyl)butan-2-yl)pyridin-2-yl)-1H-pyrazol-4-yl)-3H-imidazo[4,5-b]pyridine]
14 | 0.023 | 0.009 |  |  | 0.015 | 0.52 |  | 0.1 | 0.6 | 1 | CNCCC(c1ccc(-n2cc(-c3ccnc4[nH]cnc34)cn2)nc1)C(F)(F)F (centres unmarked) [Example 1200, 3-(6-(4-(3H-imidazo[4,5-b]pyridin-7-yl)-1H-pyrazol-1-yl)pyridin-3-yl)-4,4,4-trifluoro-N-methylbutan-1-amine]
